Molecular target: T1, AKT1-E17K (Homo sapiens, UniProt P31749, E17K)
T1 construct: host or cells: HEK-293 (ATCC CRL-1573)
Test: NanoBRET Target Engagement (TE) Assay
Type: cell-based
Method in brief: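 Live cells transiently expressing NanoLuc-AKT1 E17K fusion, incubated 2 h with tracer and compound before substrate plus extracellular NanoLuc inhibitor were added. BRET read at 450/600 nm; EC50 from variable-slope sigmoidal fit of tracer displacement.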

T1 sequence (P31749 whole entry E17K): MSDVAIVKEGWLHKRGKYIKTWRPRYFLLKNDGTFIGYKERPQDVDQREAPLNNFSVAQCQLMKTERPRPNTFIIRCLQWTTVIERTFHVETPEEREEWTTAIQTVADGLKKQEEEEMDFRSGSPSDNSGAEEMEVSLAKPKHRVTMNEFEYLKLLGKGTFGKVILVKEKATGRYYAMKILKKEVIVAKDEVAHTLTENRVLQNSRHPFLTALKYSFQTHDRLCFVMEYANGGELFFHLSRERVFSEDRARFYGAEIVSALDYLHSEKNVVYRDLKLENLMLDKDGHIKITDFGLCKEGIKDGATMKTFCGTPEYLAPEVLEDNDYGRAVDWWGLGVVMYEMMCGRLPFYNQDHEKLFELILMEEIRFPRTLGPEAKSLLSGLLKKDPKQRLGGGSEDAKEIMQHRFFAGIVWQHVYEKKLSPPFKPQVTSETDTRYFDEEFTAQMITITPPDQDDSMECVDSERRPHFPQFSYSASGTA

| Compound | IC50 |
| --- | --- |
| Nc1ncccc1-c1nc2ccc(-c3ccccc3)nc2n1-c1ccc(CN2C[C@@H]3C[C@H]2CN3C(=O)c2ccc(C=O)c(O)c2)cc1 [Example 122, 4-((1S,4S)-5-(4-(2-(2-Aminopyridin-3-yl)-5-phenyl-3H-imidazo[4,5-b]pyridin-3-yl)benzyl)-2,5-diazabicyclo[2.2.1]heptane-2-carbonyl)-2-hydroxybenzaldehyde] | 15 to 60 nM |
| Nc1ncccc1-c1nc2ccc(-c3ccccc3)nc2n1-c1ccc(CN2C[C@@H]3C[C@H]2CN3c2ccc(C=O)c(O)c2)cc1 [Example 123, 4-((1S,4S)-5-(4-(2-(2-Aminopyridin-3-yl)-5-phenyl-3H-imidazo[4,5-b]pyridin-3-yl)benzyl)-2,5-diazabicyclo[2.2.1]heptan-2-yl)-2-hydroxybenzaldehyde] | 60 to 600 nM |
| Nc1ncccc1-c1nc2ccc(-c3ccccc3)nc2n1-c1ccc(CN2C[C@H]3C[C@@H]2CN3c2ccc(C=O)c(O)c2)cc1 [Example 124, 4-((1R,4R)-5-(4-(2-(2-Aminopyridin-3-yl)-5-phenyl-3H-imidazo[4,5-b]pyridin-3-yl)benzyl)-2,5-diazabicyclo[2.2.1]heptan-2-yl)-2-hydroxybenzaldehyde] | 15 to 60 nM |
| Nc1ncccc1-c1nc2ccc(-c3ccccc3)nc2n1-c1ccc(CN2CC3CCC2CN3C(=O)c2ccc(C=O)c(O)c2)cc1 (stereo not drawn) [Example 125, 4-(5-(4-(2-(2-aminopyridin-3-yl)-5-phenyl-3H-imidazo[4,5-b]pyridin-3-yl)benzyl)-2,5-diazabicyclo[2.2.2]octane-2-carbonyl)-2-hydroxybenzaldehyde] | 60 to 600 nM |
| Nc1ncccc1-c1nc2ccc(-c3ccccc3)nc2n1-c1ccc(CN2CC3CCC2CN3c2ccc(C=O)c(O)c2)cc1 (stereo not drawn) [Example 127, 4-(5-(4-(2-(2-Aminopyridin-3-yl)-5-phenyl-3H-imidazo[4,5-b]pyridin-3-yl)benzyl)-2,5-diazabicyclo[2.2.2]octan-2-yl)-2-hydroxybenzaldehyde] | 60 to 600 nM |
| Nc1ncccc1-c1nc2ccc(-c3ccccc3)nc2n1-c1ccc(CN2CCC(Oc3cccc(O)c3C=O)CC2)cc1 [Example 128, 2-((1-(4-(2-(2-Aminopyridin-3-yl)-5-phenyl-3H-imidazo[4,5-b]pyridin-3-yl)benzyl)piperidin-4-yl)oxy)-6-hydroxybenzaldehyde] | 60 to 600 nM |
| Nc1ncccc1-c1nc2ccc(-c3ccccc3)nc2n1-c1ccc(CN2CCC(Oc3ccc(C=O)c(O)c3)CC2)cc1 [Example 129, 4-((1-(4-(2-(2-Aminopyridin-3-yl)-5-phenyl-3H-imidazo[4,5-b]pyridin-3-yl)benzyl)piperidin-4-yl)oxy)-2-hydroxybenzaldehyde] | 15 to 60 nM |
| Nc1ncccc1-c1nc2ccc(-c3ccccc3)nc2n1-c1ccc(CN2CCC(Oc3ccc(O)c(C=O)c3)CC2)cc1 [Example 130, 5-((1-(4-(2-(2-Aminopyridin-3-yl)-5-phenyl-3H-imidazo[4,5-b]pyridin-3-yl)benzyl)piperidin-4-yl)oxy)-2-hydroxybenzaldehyde] | 60 to 600 nM |
| Nc1ncccc1-c1nc2ccc(-c3ccccc3)nc2n1-c1ccc(CN2C[C@@H]3CN(C(=O)c4ccc(C=O)c(O)c4)C[C@@H]3C2)cc1 [Example 132, 4-((3aR,6aS)-5-(4-(2-(2-Aminopyridin-3-yl)-5-phenyl-3H-imidazo[4,5-b]pyridin-3-yl)benzyl)octahydropyrrolo[3,4-c]pyrrole-2-carbonyl)-2-hydroxybenzaldehyde] | 60 to 600 nM |
| Nc1ncccc1-c1nc2ccc(-c3ccccc3)nc2n1-c1ccc(CN2C[C@@H]3CN(c4ccc(C=O)c(O)c4)C[C@@H]3C2)cc1 [Example 133, 4-((3aR,6aS)-5-(4-(2-(2-Aminopyridin-3-yl)-5-phenyl-3H-imidazo[4,5-b]pyridin-3-yl)benzyl)hexahydropyrrolo[3,4-c]pyrrol-2(1H)-yl)-2-hydroxybenzaldehyde] | 60 to 600 nM |
| Nc1ncccc1-c1nc2ccc(-c3ccccc3)nc2n1-c1ccc(CN2C[C@@H]3CN(c4ccc(O)c(C=O)c4)C[C@@H]3C2)cc1 [Example 134, 5-((3aR,6aS)-5-(4-(2-(2-Aminopyridin-3-yl)-5-phenyl-3H-imidazo[4,5-b]pyridin-3-yl)benzyl)hexahydropyrrolo[3,4-c]pyrrol-2(1H)-yl)-2-hydroxybenzaldehyde] | 60 to 600 nM |
| Nc1ncccc1-c1nc2ccc(-c3ccccc3)nc2n1-c1ccc(CN2C[C@H]3CN(C(=O)c4ccc(C=O)c(O)c4)C[C@@H]3C2)cc1 [Example 136, 4-((3aS,6aS)-5-(4-(2-(2-Aminopyridin-3-yl)-5-phenyl-3H-imidazo[4,5-b]pyridin-3-yl)benzyl)octahydropyrrolo[3,4-c]pyrrole-2-carbonyl)-2-hydroxybenzaldehyde] | 60 to 600 nM |
| Nc1ncccc1-c1nc2ccc(-c3ccccc3)nc2n1-c1ccc(COc2cccc(O)c2C=O)cc1 [Example 137, 2-((4-(2-(2-Aminopyridin-3-yl)-5-phenyl-3H-imidazo[4,5-b]pyridin-3-yl)benzyl)oxy)-6-hydroxybenzaldehyde] | > 600 nM |
| Nc1ncccc1-c1nc2ccc(-c3ccccc3)nc2n1-c1ccc(COc2ccc(C=O)c(O)c2)cc1 [Example 138, 4-((4-(2-(2-Aminopyridin-3-yl)-5-phenyl-3H-imidazo[4,5-b]pyridin-3-yl)benzyl)oxy)-2-hydroxybenzaldehyde] | 60 to 600 nM |
| Nc1ncccc1-c1nc2ccc(-c3ccccc3)nc2n1-c1ccc(COc2ccc(O)c(C=O)c2)cc1 [Example 139, 5-((4-(2-(2-Aminopyridin-3-yl)-5-phenyl-3H-imidazo[4,5-b]pyridin-3-yl)benzyl)oxy)-2-hydroxybenzaldehyde] | > 600 nM |
| C[C@H](NC(=O)c1ccc(O)c(C=O)c1)c1ccc(-n2c(-c3cccnc3N)nc3ccc(-c4ccccc4)nc32)cc1 [Example 140, (S)—N-(1-(4-(2-(2-Aminopyridin-3-yl)-5-phenyl-3H-imidazo[4,5-b]pyridin-3-yl)phenyl)ethyl)-3-formyl-4-hydroxybenzamide] | 15 to 60 nM |

More lines, now with the values ahead:

| IC50 | Compound |
| --- | --- |
| 60 to 600 nM | Nc1ncccc1-c1nc2ccc(-c3ccccc3)nc2n1-c1ccc(CN2C[C@@H]3C[C@H]2CN3C(=O)c2ccc(O)c(C=O)c2)cc1 [Example 121, 5-((1S,4S)-5-(4-(2-(2-Aminopyridin-3-yl)-5-phenyl-3H-imidazo[4,5-b]pyridin-3-yl)benzyl)-2,5-diazabicyclo[2.2.1]heptane-2-carbonyl)-2-hydroxybenzaldehyde] |
| 60 to 600 nM | Nc1ncccc1-c1nc2ccc(-c3ccccc3)nc2n1-c1ccc(CN2CC3CCC2CN3C(=O)c2ccc(O)c(C=O)c2)cc1 (stereo not drawn) [Example 126, 5-(5-(4-(2-(2-Aminopyridin-3-yl)-5-phenyl-3H-imidazo[4,5-b]pyridin-3-yl)benzyl)-2,5-diazabicyclo[2.2.2]octane-2-carbonyl)-2-hydroxybenzaldehyde] |
| 60 to 600 nM | Nc1ncccc1-c1nc2ccc(-c3ccccc3)nc2n1-c1ccc(CN2C[C@@H]3CN(C(=O)c4ccc(O)c(C=O)c4)C[C@@H]3C2)cc1 [Example 131, 5-((3aR,6aS)-5-(4-(2-(2-Aminopyridin-3-yl)-5-phenyl-3H-imidazo[4,5-b]pyridin-3-yl)benzyl)octahydropyrrolo[3,4-c]pyrrole-2-carbonyl)-2-hydroxybenzaldehyde] |
| 15 to 60 nM | Nc1ncccc1-c1nc2ccc(-c3ccccc3)nc2n1-c1ccc(CN2C[C@H]3CN(C(=O)c4ccc(O)c(C=O)c4)C[C@@H]3C2)cc1 [Example 135, 5-((3aS,6aS)-5-(4-(2-(2-Aminopyridin-3-yl)-5-phenyl-3H-imidazo[4,5-b]pyridin-3-yl)benzyl)octahydropyrrolo[3,4-c]pyrrole-2-carbonyl)-2-hydroxybenzaldehyde] |
| 15 to 60 nM | Nc1ncccc1-c1nc2ccc(-c3ccccc3F)nc2n1-c1ccc(CN2CCN(C(=O)c3ccc(O)c(C=O)c3)CC2)cc1 [Example 141, 5-(4-(4-(2-(2-Aminopyridin-3-yl)-5-(2-fluorophenyl)-3H-imidazo[4,5-b]pyridin-3-yl)benzyl)piperazine-1-carbonyl)-2-hydroxybenzaldehyde] |
| > 600 nM | Nc1ncccc1-c1nc2ccc(-c3ccccc3F)nc2n1-c1ccc(CN2CCN(C(=O)c3ccc(C=O)c(O)c3)CC2)cc1 [Example 142, 4-(4-(4-(2-(2-Aminopyridin-3-yl)-5-(2-fluorophenyl)-3H-imidazo[4,5-b]pyridin-3-yl)benzyl)piperazine-1-carbonyl)-2-hydroxybenzaldehyde] |
| 60 to 600 nM | Nc1ncccc1-c1nc2ccc(-c3ccc(F)cc3)nc2n1-c1ccc(CN2CCN(C(=O)c3ccc(O)c(C=O)c3)CC2)cc1 [Example 143, 5-(4-(4-(2-(2-Aminopyridin-3-yl)-5-(4-fluorophenyl)-3H-imidazo[4,5-b]pyridin-3-yl)benzyl)piperazine-1-carbonyl)-2-hydroxybenzaldehyde] |
| 60 to 600 nM | Nc1ncccc1-c1nc2ccc(-c3ccc(F)cc3)nc2n1-c1ccc(CN2CCN(C(=O)c3ccc(C=O)c(O)c3)CC2)cc1 [Example 144, 4-(4-(4-(2-(2-Aminopyridin-3-yl)-5-(4-fluorophenyl)-3H-imidazo[4,5-b]pyridin-3-yl)benzyl)piperazine-1-carbonyl)-2-hydroxybenzaldehyde] |
| 60 to 600 nM | Nc1ncccc1-c1nc2ccc(-c3ccccc3Cl)nc2n1-c1ccc(CN2CCN(c3ccc(C=O)c(O)c3)CC2)cc1 [Example 145, 4-(4-(4-(2-(2-Aminopyridin-3-yl)-5-(2-chlorophenyl)-3H-imidazo[4,5-b]pyridin-3-yl)benzyl)piperazin-1-yl)-2-hydroxybenzaldehyde] |
| > 600 nM | Nc1ncccc1-c1nc2ccc(-c3ccc(Cl)cc3)nc2n1-c1ccc(CN2CCN(c3ccc(C=O)c(O)c3)CC2)cc1 [Example 146, 4-(4-(4-(2-(2-aminopyridin-3-yl)-5-(4-chlorophenyl)-3H-imidazo[4,5-b]pyridin-3-yl)benzyl)piperazin-1-yl)-2-hydroxybenzaldehyde] |
| > 600 nM | Nc1ncccc1-c1nc2ccc(-c3ccc(Cl)cc3)nc2n1-c1ccc(CN2CCN(C(=O)c3ccc(O)c(C=O)c3)CC2)cc1 [Example 147, 5-(4-(4-(2-(2-aminopyridin-3-yl)-5-(4-chlorophenyl)-3H-imidazo[4,5-b]pyridin-3-yl)benzyl)piperazine-1-carbonyl)-2-hydroxybenzaldehyde] |

From patent US20260365647A1, “AKT1 MODULATORS” (Alterome Therapeutics, Inc., priority 2022, published 2026)
